Source: US4839342A, “Method of increasing tear production by topical administration of cyclosporin” (University of Georgia Research Foundation, Inc., priority 1987, dated 1989)

Test system: aqueous tear production
Test: Schirmer tear test in dogs with aqueous tear deficiency / KCS
Assay type: in vivo, dog
Text: The Schirmer tear test is a test of aqueous tear production. The test depends upon observing the extent of wetting of a strip of filter paper placed over the lower lid of an eye for a specified time. Standardized strips are commercially available. The strip is folded at a notched marking and is then placed over the edge of the lateral one-third of the eyelid. The strip is usually left in place for a period of time while the patient looks straight ahead in dim light.
The degree of wetting of the paper is measured in mm from the notch. For human patients, a normal end point is 5 mm of wetting at five minutes. For canine patients, the normal tear production is 14 to 20 mm. of wetting at one minute.

[1] = Example 3 English Bulldog, three drops of 2% pilocarpine by mouth, after two hours

Row | Compound | benefit of treatment (tear deficiency, conjunctivitis) (Example 1 Poodle, topical, both eyes twice daily for nine weeks) | Schirmer tear test value, left eye [1] [mm/minute] | Schirmer tear test value, right eye [1] [mm/minute] | Schirmer tear test values, both eyes (Example 4 Miniature Poodle, one drop 2% pilocarpine by mouth two times daily with ophthalmic petrolatum, after two weeks) [mm/minute]
1 | C[C@@H]1C[C@H]2[C@@H]3CCC4=CC(=O)C=C[C@]4(C)[C@@]3(F)[C@@H](O)C[C@]2(C)[C@@]1(O)C(=O)CO [dexamethasone] | without benefit |  |  | 
2 | CC[C@@H]1C(=O)OC[C@@H]1Cc1cncn1C [pilocarpine] |  | 10 | 0 | 0
